Data reported in patent US20240067632A1, “WEE1 Degrading Compounds and Uses Thereof” (Bristol-Myers Squibb Company, priority 2022, published 2024).
pEC50: −log10 of the molar value.

Legend:
MKN45 cells = experiment: MKN45 cell proliferation assay (Cell-Titer-Glo, 120 h); assay type: cell-based; conditions: for pEC50: Homo sapiens, MKN-45, 120 h, Cell-Titer-Glo, growth inhibition, read-out: MKN45 Cell Prolif. 120 hr (EC50); for MKN45 Cell Prolif. 120 hr (Ymin-Obs): minimal percent of DMSO control observed in the concentrations tested
Summary of the method: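 Cells seeded at 400/well onto pre-printed 10-point half-log dilutions (top 1 or 10 uM, 0.1% DMSO final), in triplicate, and grown 120 h at 37 C. Viability by Cell-Titer-Glo luminescence, blank-subtracted and normalised to DMSO; EC50 from four-parameter logistic fit, with observed minimal % of control recorded as Ymin-obs.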

WEE1 = target: T1, WEE1 (Homo sapiens, UniProt P30291+Q96SW2); experiment: WEE1-ePL degradation assay (LentiX-WEE1-ePL-GSPT1-ND cells, InCELL Hunter luminescence, 4 h); assay type: cell-based; conditions: 293T-LentiX WEE1-ePL cells; for 293T-LentiX WEE1-ePL Degradation 4 hr (Ymin): lower limit of the fit (0 = luciferase inhibitor, Ymax = DMSO control); for DC50: read-out: 293T-LentiX WEE1-ePL Degradation 4 hr (EC50)
T1 construct: C-terminal ePL-tagged (DiscoverX, Fremont, CA) full-length WEE1 expression construct; expressed in transfected cells; host or cells: LentiX-HEK293T (Invitrogen), lentiviral transduction; co-expressing GSPT1-GN (G576N, lacking the first 158 amino acids)
Summary of the method: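 HEK293T cells stably expressing C-terminal ePL-tagged full-length WEE1, 2500 cells/well, treated 4 h at 37° C with a 10-point 3-fold series from 1 or 10 uM. Remaining WEE1-ePL read by InCELL Hunter luminescence after 30 min. EC50 came from a four-parameter logistic fit, with Ymax set from DMSO control.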

Row | pEC50 (MKN45 cells) | 293T-LentiX WEE1-ePL Degradation 4 hr (Ymin) (WEE1) | DC50 (WEE1) [nM] | SMILES | MKN45 Cell Prolif. 120 hr (Ymin-Obs) (MKN45 cells)
1 | 7.36 | 30.345 | 4.05 | O=C1CCC(N2Cc3cc(O[C@H]4CCN(Cc5cc6ccccc6cn5)C4)ccc3C2=O)C(=O)N1 (stereo partly drawn) [3-(5-{[(3S)-1-[(isoquinolin-3-yl)methyl]pyrrolidin-3-yl]oxy}-1-oxo-2,3-dihydro-1H-isoindol-2-yl)piperidine-2,6-dione] | 13.47
2 | 7.28 | 25.71 | 17 | O=C1CCC(N2Cc3cc(O[C@H]4CCN(Cc5ccc6cnccc6c5)C4)ccc3C2=O)C(=O)N1 (stereo partly drawn) [3-(5-{[(3S)-1-[(isoquinolin-6-yl)methyl]pyrrolidin-3-yl]oxy}-1-oxo-2,3-dihydro-1H-isoindol-2-yl)piperidine-2,6-dione] | 15.77
3 | 6.54 | 46 | 21 | O=C1CCC(N2Cc3cc(O[C@H]4CCN(Cc5ccc6ccncc6c5)C4)ccc3C2=O)C(=O)N1 (stereo partly drawn) [3-(5-{[(3S)-1-[(isoquinolin-7-yl)methyl]pyrrolidin-3-yl]oxy}-1-oxo-2,3-dihydro-1H-isoindol-2-yl)piperidine-2,6-dione] | 54.45
4 | 8.62 | 29.5 | 2.58 | O=C1CCC(N2Cc3cc(O[C@H]4CCN(Cc5ccc6nc(C7(O)CCC7)ccc6c5)C4)ccc3C2=O)C(=O)N1 (stereo partly drawn) [3-(5-{[(3S)-1-{[2-(1-hydroxycyclobutyl)quinolin-6-yl]methyl}pyrrolidin-3-yl]oxy}-1-oxo-2,3-dihydro-1H-isoindol-2-yl)piperidine-2,6-dione] | 7.94
5 | 8.48 | 31 | 2.69 | COC1(c2ccc3cc(CN4CC[C@H](Oc5ccc6c(c5)CN(C5CCC(=O)NC5=O)C6=O)C4)ccc3n2)CCC1 (stereo partly drawn) [3-(5-{[(3S)-1-{[2-(1-methoxycyclobutyl)quinolin-6-yl]methyl}pyrrolidin-3-yl]oxy}-1-oxo-2,3-dihydro-1H-isoindol-2-yl)piperidine-2,6-dione] | 7.4
6 | 7.03 | 32 | 100 | CN1CC(c2ccc3cc(CN4CC[C@H](Oc5ccc6c(c5)CN(C5CCC(=O)NC5=O)C6=O)C4)ccc3n2)C1 (stereo partly drawn) [3-(5-{[(3S)-1-{[2-(1-methylazetidin-3-yl)quinolin-6-yl]methyl}pyrrolidin-3-yl]oxy}-1-oxo-2,3-dihydro-1H-isoindol-2-yl)piperidine-2,6-dione] | 11.97
7 | 7.66 | 30 | 28.6 | CN1CCC(c2ccc3cc(CN4CC[C@H](Oc5ccc6c(c5)CN(C5CCC(=O)NC5=O)C6=O)C4)ccc3n2)CC1 (stereo partly drawn) [3-(5-{[(3S)-1-{[2-(1-methylpiperidin-4-yl)quinolin-6-yl]methyl}pyrrolidin-3-yl]oxy}-1-oxo-2,3-dihydro-1H-isoindol-2-yl)piperidine-2,6-dione] | 7.273
8 | 6.46 | 43.5 | 33.4 | O=C1CCC(N2Cc3cc(O[C@H]4CCN(Cc5ccc6nc(CC(F)F)ccc6c5)C4)ccc3C2=O)C(=O)N1 (stereo partly drawn) [3-(5-{[(3S)-1-{[2-(2,2-difluoroethyl)quinolin-6-yl]methyl}pyrrolidin-3-yl]oxy}-1-oxo-2,3-dihydro-1H-isoindol-2-yl)piperidine-2,6-dione] | 21.74
9 | 8.12 | 31 | 11.6 | CC1(C)CN(c2ncc3cc(CN4CC[C@H](Oc5ccc6c(c5)CN(C5CCC(=O)NC5=O)C6=O)C4)ccc3n2)CCO1 (stereo partly drawn) [3-(5-{[(3S)-1-{[2-(2,2-dimethylmorpholin-4-yl)quinazolin-6-yl]methyl}pyrrolidin-3-yl]oxy}-1-oxo-2,3-dihydro-1H-isoindol-2-yl)piperidine-2,6-dione] | 9.381
10 | 8.58 | 32 | 2.41 | CC1(C)CN(c2ccc3cc(CN4CC[C@H](Oc5ccc6c(c5)CN(C5CCC(=O)NC5=O)C6=O)C4)ccc3n2)CCO1 (stereo partly drawn) [3-(5-{[(3S)-1-{[2-(2,2-dimethylmorpholin-4-yl)quinolin-6-yl]methyl}pyrrolidin-3-yl]oxy}-1-oxo-2,3-dihydro-1H-isoindol-2-yl)piperidine-2,6-dione] | 10.48
11 | 8.67 | 29 | 2.56 | CC1(C)CC(c2ccc3cc(CN4CC[C@H](Oc5ccc6c(c5)CN(C5CCC(=O)NC5=O)C6=O)C4)ccc3n2)CCO1 (stereo partly drawn) [3-(5-{[(3S)-1-{[2-(2,2-dimethyloxan-4-yl)quinolin-6-yl]methyl}pyrrolidin-3-yl]oxy}-1-oxo-2,3-dihydro-1H-isoindol-2-yl)piperidine-2,6-dione] | 7.959
12 | 7.85 | 32.75 | 4.09 | CC(C)(O)c1ccc2cc(CN3CC[C@H](Oc4ccc5c(c4)CN(C4CCC(=O)NC4=O)C5=O)C3)ccc2n1 (stereo partly drawn) [3-(5-{[(3S)-1-{[2-(2-hydroxypropan-2-yl)quinolin-6-yl]methyl}pyrrolidin-3-yl]oxy}-1-oxo-2,3-dihydro-1H-isoindol-2-yl)piperidine-2,6-dione] | 11.2475
13 | 8.53 | 32.5 | 2.6 | COC(C)(C)c1ccc2cc(CN3CC[C@H](Oc4ccc5c(c4)CN(C4CCC(=O)NC4=O)C5=O)C3)ccc2n1 (stereo partly drawn) [3-(5-{[(3S)-1-{[2-(2-methoxypropan-2-yl)quinolin-6-yl]methyl}pyrrolidin-3-yl]oxy}-1-oxo-2,3-dihydro-1H-isoindol-2-yl)piperidine-2,6-dione] | 6.21
14 | 7.95 | 25.84 | 18.5 | O=C1CCC(N2Cc3cc(O[C@H]4CCN(Cc5ccc6nc(N7CCCC(F)(F)C7)ccc6c5)C4)ccc3C2=O)C(=O)N1 (stereo partly drawn) [3-(5-{[(3S)-1-{[2-(3,3-difluoropiperidin-1-yl)quinolin-6-yl]methyl}pyrrolidin-3-yl]oxy}-1-oxo-2,3-dihydro-1H-isoindol-2-yl)piperidine-2,6-dione] | 12.35
15 | 8.41 | 29.67 | 7.36 | CC1(C)CCN(c2ccc3cc(CN4CC[C@H](Oc5ccc6c(c5)CN(C5CCC(=O)NC5=O)C6=O)C4)ccc3n2)C1=O (stereo partly drawn) [3-(5-{[(3S)-1-{[2-(3,3-dimethyl-2-oxopyrrolidin-1-yl)quinolin-6-yl]methyl}pyrrolidin-3-yl]oxy}-1-oxo-2,3-dihydro-1H-isoindol-2-yl)piperidine-2,6-dione] | 7.37
16 | 7.75 | 31.5 | 4.82 | CC1(C)COCCN1c1ncc2cc(CN3CC[C@H](Oc4ccc5c(c4)CN(C4CCC(=O)NC4=O)C5=O)C3)ccc2n1 (stereo partly drawn) [3-(5-{[(3S)-1-{[2-(3,3-dimethylmorpholin-4-yl)quinazolin-6-yl]methyl}pyrrolidin-3-yl]oxy}-1-oxo-2,3-dihydro-1H-isoindol-2-yl)piperidine-2,6-dione] | 17.3
17 | 8.68 | 34 | 2.84 | CC1(C)COCCN1c1ccc2cc(CN3CC[C@H](Oc4ccc5c(c4)CN(C4CCC(=O)NC4=O)C5=O)C3)ccc2n1 (stereo partly drawn) [3-(5-{[(3S)-1-{[2-(3,3-dimethylmorpholin-4-yl)quinolin-6-yl]methyl}pyrrolidin-3-yl]oxy}-1-oxo-2,3-dihydro-1H-isoindol-2-yl)piperidine-2,6-dione] | 9.02
18 | 7.57 | 34 | 14.1 | O=C1CCC(N2Cc3cc(O[C@H]4CCN(Cc5ccc6nc(N7CC(O)C7)ccc6c5)C4)ccc3C2=O)C(=O)N1 (stereo partly drawn) [3-(5-{[(3S)-1-{[2-(3-hydroxyazetidin-1-yl)quinolin-6-yl]methyl}pyrrolidin-3-yl]oxy}-1-oxo-2,3-dihydro-1H-isoindol-2-yl)piperidine-2,6-dione] | 13.6
19 | 8.17 | 36 | 2.3 | COC1CN(c2ccc3cc(CN4CC[C@H](Oc5ccc6c(c5)CN(C5CCC(=O)NC5=O)C6=O)C4)ccc3n2)C1 (stereo partly drawn) [3-(5-{[(3S)-1-{[2-(3-methoxyazetidin-1-yl)quinolin-6-yl]methyl}pyrrolidin-3-yl]oxy}-1-oxo-2,3-dihydro-1H-isoindol-2-yl)piperidine-2,6-dione] | 11.6
20 | 7.75 | 21.62 | 38.4 | O=C1CCC(N2Cc3cc(O[C@H]4CCN(Cc5ccc6nc(N7CCC(F)(F)CC7)ccc6c5)C4)ccc3C2=O)C(=O)N1 (stereo partly drawn) [3-(5-{[(3S)-1-{[2-(4,4-difluoropiperidin-1-yl)quinolin-6-yl]methyl}pyrrolidin-3-yl]oxy}-1-oxo-2,3-dihydro-1H-isoindol-2-yl)piperidine-2,6-dione] | 17.9
